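Dose response: 5 concentrations. Exposure: 48 h. Format: 96-well plates. Endpoint: linear interpolation; highest concentration if not reached. GI50: concentration for 50% inhibition of growth. TGI marks complete inhibition of growth.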
Legend:
Assay in all cases: NCI anticancer screen, dose series, 48 h
OVCAR-4 ovarian = tested on: OVCAR-4 ovarian
MCF7 breast = tested on: MCF7 breast
OVCAR-5 ovarian = tested on: OVCAR-5 ovarian
NCI-H23 lung = tested on: NCI-H23 lung
SF-268 CNS = tested on: SF-268 CNS
HOP-92 NSCLC = tested on: HOP-92 NSCLC
NCI/ADR-RES ovarian = tested on: NCI/ADR-RES ovarian
A549 NSCLC = tested on: A549 NSCLC
IGROV1 ovarian = tested on: IGROV1 ovarian
SK-MEL-28 melanoma = tested on: SK-MEL-28 melanoma
T-47D breast = tested on: T-47D breast
M14 melanoma = tested on: M14 melanoma
LOX IMVI melanoma = tested on: LOX IMVI melanoma
PC-3 prostate = tested on: PC-3 prostate
SW-620 colon = tested on: SW-620 colon
U251 CNS = tested on: U251 CNS
NCI-H522 lung = tested on: NCI-H522 lung
SR leukemia = tested on: SR leukemia
UACC-257 melanoma = tested on: UACC-257 melanoma
UO-31 renal = tested on: UO-31 renal
HS 578T breast = tested on: HS 578T breast
SK-MEL-2 melanoma = tested on: SK-MEL-2 melanoma
HCC-2998 colon = tested on: HCC-2998 colon
HCT-15 colon = tested on: HCT-15 colon
CAKI-1 renal = tested on: CAKI-1 renal
MOLT-4 leukemia = tested on: MOLT-4 leukemia
NCI-H460 lung = tested on: NCI-H460 lung
K-562 leukemia = tested on: K-562 leukemia
SF-295 CNS = tested on: SF-295 CNS

Which results are given for `CCC(=O)Nc1cc(Nc2cc(NC3CC3)n3ncc(C#N)c3n2)ccc1C`?
GI50 (OVCAR-4 ovarian): 1.66 µM; TGI (OVCAR-4 ovarian): 67.1 µM; GI50 (MCF7 breast): 0.421 µM; TGI (MCF7 breast): 10.7 µM; GI50 (OVCAR-5 ovarian): 0.955 µM; TGI (OVCAR-5 ovarian): 33 µM; GI50 (NCI-H23 lung): 1.12 µM; TGI (NCI-H23 lung): 14.9 µM; GI50 (SF-268 CNS): 2.32 µM; TGI (SF-268 CNS): 57.4 µM; GI50 (HOP-92 NSCLC): 0.449 µM; TGI (HOP-92 NSCLC): 6.39 µM; GI50 (NCI/ADR-RES ovarian): 2.99 µM; TGI (NCI/ADR-RES ovarian): 30.3 µM; GI50 (A549 NSCLC): 1.8 µM; TGI (A549 NSCLC): 17.3 µM; GI50 (IGROV1 ovarian): 1.27 µM; TGI (IGROV1 ovarian): 6.29 µM; GI50 (SK-MEL-28 melanoma): 4.02 µM; TGI (SK-MEL-28 melanoma): > 100 µM; GI50 (T-47D breast): 1.05 µM; TGI (T-47D breast): 9.87 µM; TGI (M14 melanoma): 12.5 µM; GI50 (LOX IMVI melanoma): 1.57 µM; TGI (LOX IMVI melanoma): 12.9 µM; GI50 (PC-3 prostate): 1.73 µM; TGI (PC-3 prostate): 23.3 µM; GI50 (SW-620 colon): 1.28 µM; TGI (SW-620 colon): 19 µM; GI50 (U251 CNS): 0.94 µM; TGI (U251 CNS): > 100 µM; GI50 (NCI-H522 lung): 2.48 µM; TGI (NCI-H522 lung): 27.1 µM; GI50 (SR leukemia): 1.78 µM; TGI (SR leukemia): > 100 µM; GI50 (UACC-257 melanoma): 1.77 µM; TGI (UACC-257 melanoma): 53.6 µM; GI50 (UO-31 renal): 2.09 µM; TGI (UO-31 renal): 13.7 µM; GI50 (HS 578T breast): 0.216 µM; TGI (HS 578T breast): 1.03 µM; GI50 (SK-MEL-2 melanoma): 2.65 µM; TGI (SK-MEL-2 melanoma): 18.6 µM; GI50 (HCC-2998 colon): 2.46 µM; TGI (HCC-2998 colon): 18.9 µM; GI50 (HCT-15 colon): 1.25 µM; TGI (HCT-15 colon): 29.6 µM; GI50 (CAKI-1 renal): 0.43 µM; TGI (CAKI-1 renal): 3.29 µM; GI50 (MOLT-4 leukemia): 3.93 µM; TGI (MOLT-4 leukemia): 52.2 µM; GI50 (NCI-H460 lung): 0.772 µM; TGI (NCI-H460 lung): 12.3 µM; GI50 (K-562 leukemia): 1.1 µM; TGI (K-562 leukemia): > 100 µM; GI50 (SF-295 CNS): 2.34 µM; TGI (SF-295 CNS): 14.8 µM

From PubChem BioAssay (NCI)
